# In ChEMBL document CHEMBL1201862, “PubChem BioAssay data set” (2004):
#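 Protocol summary: plate cells (96-well), add compound at 5 concentrations, incubate 48 h, interpolate endpoints linearly. GI50 marks 50% less growth.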 Activity calls are given as the source filed them. Cut-off read from the data, not from the text of the source: active = GI50 up to about 1.1 µM and inactive = higher.
# Tests used:
# Experiment in all cases: growth of human tumour cells (NCI), 48 h
# [1] = tested on: HOP-62
# [2] = tested on: SNB-78
# [3] = tested on: HCC 2998
# [4] = tested on: CCRF-CEM
# [5] = tested on: NCI-H23
# [6] = tested on: OVCAR-4
# [7] = tested on: UACC-257
# [8] = tested on: M19-MEL
# [9] = tested on: U-251
# [10] = tested on: HL-60
# [11] = tested on: OVCAR-5
# [12] = tested on: SF-295
# [13] = tested on: SK-MEL-5
# [14] = tested on: KM12
# [15] = tested on: SK-MEL-2
# [16] = tested on: M14
# [17] = tested on: HT-29
# [18] = tested on: OVCAR-3
# [19] = tested on: OVCAR-8
# [20] = tested on: DLD-1
# [21] = tested on: EKVX
# [22] = tested on: RPMI-8226
# [23] = tested on: NCI-H226
# [24] = tested on: SW-620
# [25] = tested on: ACHN
# [26] = tested on: CAKI-1
# [27] = tested on: DMS-273
# [28] = tested on: HCT-116
# [29] = tested on: DMS-114
# [30] = tested on: KM-20L2
# [31] = tested on: NCI-H460
# [32] = tested on: IGROV-1
# [33] = tested on: A498
# [34] = tested on: SF-539
# [35] = tested on: SK-OV-3
# [36] = tested on: SK-MEL-28
# [37] = tested on: HCT-15
# [38] = tested on: SNB-75
# [39] = tested on: K562
# [40] = tested on: UACC-62
# [41] = tested on: TK-10
# [42] = tested on: UO-31
# [43] = tested on: 786-0
# [44] = tested on: XF498
# [45] = tested on: MOLT-4
# [46] = tested on: RXF 393
# [47] = tested on: RXF 631
# [48] = tested on: Malme-3M
# [49] = tested on: LXFL 529
# [50] = tested on: A549
# [51] = tested on: SN12C
smiles,measurement,setting,value
CCCC(S(=O)(=O)c1ccccc1)S(=O)(=O)c1ccccc1,GI50,[1],> 100 µM (inactive)
same,GI50,[2],> 100 µM (inactive)
same,GI50,[3],> 100 µM (inactive)
same,GI50,[4],> 100 µM (inactive)
same,GI50,[5],> 100 µM (inactive)
same,GI50,[6],> 100 µM (inactive)
same,GI50,[7],> 100 µM (inactive)
same,GI50,[8],> 100 µM (inactive)
same,GI50,[9],> 100 µM (inactive)
same,GI50,[10],> 100 µM (inactive)
same,GI50,[11],> 100 µM (inactive)
same,GI50,[12],83.4 µM (inactive)
same,GI50,[13],> 100 µM (inactive)
same,GI50,[14],> 100 µM (inactive)
same,GI50,[15],> 100 µM (inactive)
same,GI50,[16],> 100 µM (inactive)
same,GI50,[17],> 100 µM (inactive)
same,GI50,[18],> 100 µM (inactive)
same,GI50,[19],> 100 µM (inactive)
same,GI50,[20],> 100 µM (inactive)
same,GI50,[21],> 100 µM (inactive)
same,GI50,[22],> 100 µM (inactive)
same,GI50,[23],86.7 µM (inactive)
same,GI50,[24],> 100 µM (inactive)
same,GI50,[25],> 100 µM (inactive)
same,GI50,[26],> 100 µM (inactive)
same,GI50,[27],> 100 µM (inactive)
same,GI50,[28],> 100 µM (inactive)
same,GI50,[29],> 100 µM (inactive)
same,GI50,[30],> 100 µM (inactive)
same,GI50,[31],> 100 µM (inactive)
same,GI50,[32],> 100 µM (inactive)
same,GI50,[33],> 100 µM (inactive)
same,GI50,[34],> 100 µM (inactive)
same,GI50,[35],> 100 µM (inactive)
same,GI50,[36],> 100 µM (inactive)
same,GI50,[37],> 100 µM
same,GI50,[38],> 100 µM (inactive)
same,GI50,[39],> 100 µM (inactive)
same,GI50,[40],> 100 µM (inactive)
same,GI50,[41],> 100 µM (inactive)
same,GI50,[42],> 100 µM (inactive)
same,GI50,[43],> 100 µM (inactive)
same,GI50,[44],> 100 µM (inactive)
same,GI50,[45],> 100 µM (inactive)
same,GI50,[46],> 100 µM (inactive)
same,GI50,[47],> 100 µM (inactive)
same,GI50,[48],> 100 µM (inactive)
same,GI50,[49],> 100 µM (inactive)
same,GI50,[50],> 100 µM (inactive)
OCc1c[te]c(-c2ccccc2)c1,GI50,[1],32.2 µM (inactive)
same,GI50,[2],> 100 µM (inactive)
same,GI50,[51],16 µM (inactive)
same,GI50,[3],> 100 µM (inactive)
same,GI50,[4],17.5 µM (inactive)
same,GI50,[5],22.1 µM (inactive)
same,GI50,[6],32 µM (inactive)
same,GI50,[7],57.5 µM (inactive)
same,GI50,[8],33.9 µM (inactive)
same,GI50,[9],34.6 µM (inactive)
same,GI50,[10],12.6 µM (inactive)
same,GI50,[11],> 100 µM (inactive)
same,GI50,[12],2.25 µM (inactive)
same,GI50,[13],30.7 µM (inactive)
same,GI50,[14],80.5 µM (inactive)
same,GI50,[15],25.8 µM (inactive)
same,GI50,[16],84.7 µM (inactive)
same,GI50,[17],> 10 µM (inactive)
same,GI50,[18],15.5 µM (inactive)
same,GI50,[19],34.4 µM (inactive)
same,GI50,[20],37.2 µM (inactive)
same,GI50,[21],99.8 µM (inactive)
same,GI50,[22],24 µM (inactive)
same,GI50,[23],24.9 µM (inactive)
same,GI50,[24],> 100 µM (inactive)
same,GI50,[25],53.3 µM (inactive)
same,GI50,[26],47.4 µM (inactive)
same,GI50,[27],51.4 µM (inactive)
same,GI50,[28],17.5 µM (inactive)
same,GI50,[29],26.8 µM (inactive)
same,GI50,[30],> 100 µM (inactive)
same,GI50,[31],31 µM (inactive)
same,GI50,[32],> 100 µM (inactive)
same,GI50,[33],92.3 µM (inactive)
same,GI50,[34],28.4 µM (inactive)
same,GI50,[35],> 100 µM (inactive)
same,GI50,[36],63.1 µM (inactive)
same,GI50,[37],20.2 µM
same,GI50,[38],44.5 µM (inactive)
same,GI50,[39],38.5 µM (inactive)
same,GI50,[40],31.3 µM (inactive)
same,GI50,[41],> 100 µM (inactive)
same,GI50,[42],23.3 µM (inactive)
same,GI50,[43],> 100 µM (inactive)
same,GI50,[44],0.56 µM (active)
same,GI50,[45],38.8 µM (inactive)
same,GI50,[46],42.2 µM (inactive)
same,GI50,[47],55.6 µM (inactive)
same,GI50,[48],> 100 µM (inactive)
same,GI50,[49],> 100 µM (inactive)
same,GI50,[50],63.2 µM (inactive)
